Test results as given in patent publication US7022856B2, “Carboline derivatives” (LIlly Icos LLC., priority 2001, dated 2006).

Tests used:
[1] = target: T1, human recombinant PDE5 (Homo sapiens, UniProt O76074); test: cGMP-PDE inhibition, one-step assay with human recombinant PDE5; type: biochemical; conditions: 0.15 μM 8-[H3]-cGMP, 30 min
T1 construct: host or cells: Saccharomyces cerevisiae strain BJ2-54 (ATCC 74465)
Experimental: The compounds of structural formula (I) were tested for an ability to inhibit PDE5. The ability of a compound to inhibit PDE5 activity is related to the IC50 value for the compound, i.e., the concentration of inhibitor required for 50% inhibition of enzyme activity. The IC50 value for compounds pounds of structural formula (I) were determined using recombinant human PDE5.
Recombinant production of human PDE1B, PDE2, PDE4A, PDE4B, PDE4C, PDE4D, PDE5, and PDE7 was carried out similarly to that described in Example 7 of U.S. Pat. No. 5,702,936, incorporated herein by reference, except that the yeast transformation vector employed, which is derived from the basic ADH2 plasmid described in Price et al., Methods in Enzymology, 185, pp. 308–318 (1990), incorporated yeast ADH2 promoter and terminator sequences and the Saccharomyces cerevisiae host was the protease-deficient strain BJ2-54 deposited on Aug. 31, 1998 with the American Type Culture Collection, Manassas, Va., under accession number ATCC 74465. Transformed host cells were grown in 2×SC-leu medium, pH 6.2, with trace metals, and vitamins. After 24 hours, YEP medium-containing glycerol was added to a final concentration of 2×YET/3% glycerol. Approxiately 24 hr later, cells were harvested, washed, and stored at −70° C. […]
Cell pellets (29 g) were thawed on ice with an equal volume of Lysis Buffer (25 mM Tris HCl, pH 8, 5 mM MgCl2, 0.25 mM DTT, 1 mM benzamidine, and 10 μM ZnSO4). Cells were lysed in a Microfluidizer® (Microfluidics Corp.) using nitrogen at 20,000 psi. The lysate was centrifuged and filtered through 0.45 μm disposable filters. The filtrate was applied to a 150 mL column of Q SEPHAROSE® Fast-Flow (Pharmacia). The column was washed with 1.5 volumes of Buffer A (20 mM Bis-Tris Propane, pH 6.8, 1 mM MgCl2, 0.25 mM DTT, 10 μM ZnSO4) and eluted with a step gradient of 125 mM NaCl in Buffer A followed by a linear gradient of 125–1000 mM NaCl in Buffer A. Active fractions from the linear gradient were applied to a 180 mL hydroxyapatite column in Buffer B (20 mM Bis-Tris Propane (pH 6.8), 1 mM MgCl2, 0.25 mM DTT, 10 μM ZnSO4, and 250 mM KCl). After loading, the column was washed with 2 volumes of Buffer B and eluted with a linear gradient of 0–125 mM potassium phosphate in Buffer B. Active fractions were pooled, precipitated with 60% ammonium sulfate, and resuspended in Buffer C (20 mM Bis-Tris Propane, pH 6.8, 125 mM NaCl, 0.5 mM DTT, and 10 μM ZnSO4). The pool was applied to a 140 mL column of SEPHACRYL® S-300 HR and eluted with Buffer C. Active fractions were diluted to 50% glycerol and stored at −20° C.
(§1) cGMP-PDE activity of compounds of the present invention was measured using a one-step assay adapted from Wells et al., Biochim. Biophys. Acta, 384, 430 (1975). The reaction medium contained 50 mM Tris-HCl, pH 7.5, 5 mM magnesium acetate. 250 μg/ml 5′-Nucleotidase, 1 mM EGTA, and 0.15 μM 8-[H^3]-cGMP. Unless otherwise indicated, the enzyme used was a human recombinant PDE5 (ICOS Corp., Bothell, Wash.).
(§2) Compounds of the invention were dissolved in DMSO finally present at 2% in the assay.

[2] = target: T2, PDE5 (bovine aorta) (Bos taurus, UniProt Q28156); test: cGMP-PDE inhibition, one-step assay, enzyme from bovine aorta; type: biochemical; conditions: versus bovine aorta (footnote 1)
T2 construct: from tissue; host or cells: bovine aorta
Experimental: as §1, §2

| SMILES | melting point | IC50 [1] | IC50 [2] |
| --- | --- | --- | --- |
| O=C(c1ccc2ccccc2c1)N1CCc2c([nH]c3ccccc23)C1c1ccc2c(c1)OCO2 (stereo not drawn) [Example 1, 1-(2H-Benzo[d]1,3-dioxolan-5-yl)(1,2,3,4-tetrahydro-β-carbolin-2-yl)-2-naphthyl ketone] | 248 to 249 °C | 566 nM | – |
| O=C(c1ccc2ccccc2c1)N1CCc2c([nH]c3ccccc23)[C@H]1c1ccc2c(c1)OCO2 [Example 2, 1-(2H-benzo[d]1,3-dioxolan-5-yl)(1R)(1,2,3,4-tetrahydro-β-carbolin-2-yl)2-naphthyl ketone] | 285 °C | 710 nM | – |
| O=C(c1ccccc1)N1CCc2c([nH]c3ccccc23)C1c1ccc2c(c1)OCO2 (stereo not drawn) [Example 3] | – | – | 440 nM |
| CC(=O)Nc1ccc(C(=O)N2CCc3c([nH]c4ccccc34)C2c2ccc3c(c2)OCO3)cc1 (stereo not drawn) [Example 4, N-{4[1-(1-Benzo[1,3]dioxol-5-yl-1,3,4,9-tetrahydro-β-carboline-2-yl)-methanoyl]phenyl}acetamide] | – | – | 50 nM |
| O=C(c1ccc2nc[nH]c2c1)N1CCc2c([nH]c3ccccc23)C1c1ccc2c(c1)OCO2 (stereo not drawn) [Example 12, 1-(1-Benzo[1,3]dioxol-5-yl-1,3,4,9-tetrahydro-β-carbolin-2-yl)-1-(3H-benzoimidazol-5-yl)methanone] | – | – | 180 nM |
| O=C(c1cc2ccccc2s1)N1CCc2c([nH]c3ccccc23)C1c1ccc(C(F)(F)F)cc1 (stereo not drawn) [Example 14] | – | – | 200 nM |
| O=C(c1ccc(-c2ccccn2)s1)N1CCc2c([nH]c3ccccc23)C1c1ccccc1 (stereo not drawn) [Example 15] | – | – | 1 nM |
| CC(=O)Nc1ccc(C2c3[nH]c4ccccc4c3CCN2C(=O)c2cc3ccccc3s2)cc1 (stereo not drawn) [Example 16] | – | – | 70 nM |
| O=C(c1ccc(-c2ccccn2)s1)N1CCc2c([nH]c3ccccc23)C1c1ccc2c(c1)OCO2 (stereo not drawn) [Example 17] | – | – | 250 nM |
| Cc1c(S(=O)(=O)N2CCc3c([nH]c4ccccc34)[C@H]2c2ccc3c(c2)OCO3)sc2ccc(Cl)cc12 [Example 45] | 139 to 143 °C | 220 nM | – |
| Clc1nc(N2CCc3c([nH]c4ccccc34)C2c2ccc3c(c2)OCO3)c2nc[nH]c2n1 (stereo not drawn) [Example 53] | – | 70 nM | – |
| CN1CCN(c2nccc(N3CCc4c([nH]c5ccccc45)C3c3ccc4c(c3)OCO4)n2)CC1 (stereo not drawn) [Example 54] | – | 560 nM | – |
| c1ccc2c3c([nH]c2c1)C(c1ccc2c(c1)CCO2)N(c1nccc(-n2ccnc2)n1)CC3 (stereo not drawn) [Example 60] | – | 70 nM | – |
| c1ccc2c3c([nH]c2c1)C(c1ccc2c(c1)CCO2)N(c1ccnc(N2CCCCC2)n1)CC3 (stereo not drawn) [Example 64] | – | 760 nM | – |
| c1coc(-c2ccnc(N3CCc4c([nH]c5ccccc45)C3c3ccc4c(c3)CCO4)n2)c1 (stereo not drawn) [Example 66] | – | 340 nM | – |
| c1coc(-c2nccc(N3CCc4c([nH]c5ccccc45)C3c3ccc4c(c3)CCO4)n2)c1 (stereo not drawn) [Example 67] | – | 70 nM | – |
| Cc1ccc(C2c3[nH]c4ccccc4c3CCN2C(=O)c2cc3ccccc3s2)cc1 (stereo not drawn) [Example 83] | – | 82 nM | – |
| O=C(c1cc2ccccc2s1)N1CCc2c([nH]c3ccccc23)C1c1ccc2c(c1)OCO2 (stereo not drawn) [Example 84] | – | 309 nM | – |
| O=C(c1cc2ccccc2s1)N1CCc2c([nH]c3ccccc23)C1c1cccc(Cl)c1 (stereo not drawn) [Example 85] | – | 835 nM | – |
| O=C(c1cc2ccccc2s1)N1CCc2c([nH]c3ccccc23)C1c1ccccc1 (stereo not drawn) [Example 86] | – | 900 nM | – |
| c1ccc2c3c([nH]c2c1)C(c1ccc2c(c1)OCO2)N(c1nccc(N2CCOCC2)n1)CC3 (stereo not drawn) [Example 87] | – | 1010 nM | – |

The remaining compounds from weak to strong by IC50 [1], led by results:

| melting point | IC50 [1] | IC50 [2] | SMILES |
| --- | --- | --- | --- |
| – | 60 nM | – | c1ccc2c3c([nH]c2c1)C(c1ccc2c(c1)CCO2)N(c1ccnc(-n2ccnc2)n1)CC3 (stereo not drawn) [Example 57] |
| – | 60 nM | – | Cc1nccn1-c1ccnc(N2CCc3c([nH]c4ccccc34)C2c2ccc3c(c2)CCO3)n1 (stereo not drawn) [Example 78] |
| – | 50 nM | – | c1csc(-c2nccc(N3CCc4c([nH]c5ccccc45)C3c3ccc4c(c3)CCO4)n2)c1 (stereo not drawn) [Example 62] |
| – | 50 nM | – | Oc1ccc(-c2cc(N3CCc4c([nH]c5ccccc45)C3c3ccc4c(c3)CCO4)ncn2)cc1 (stereo not drawn) [Example 80] |
| – | 40 nM | – | c1csc(-c2nccc(N3CCc4c([nH]c5ccccc45)C3c3ccc4c(c3)OCO4)n2)c1 (stereo not drawn) [Example 56] |
| – | 40 nM | – | c1cncc(-c2ccnc(N3CCc4c([nH]c5ccccc45)C3c3ccc4c(c3)CCO4)n2)c1 (stereo not drawn) [Example 59] |
| – | 40 nM | – | c1cncc(-c2nccc(N3CCc4c([nH]c5ccccc45)C3c3ccc4c(c3)CCO4)n2)c1 (stereo not drawn) [Example 61] |
| – | 40 nM | – | Cc1nccn1-c1nccc(N2CCc3c([nH]c4ccccc34)C2c2ccc3c(c2)CCO3)n1 (stereo not drawn) [Example 63] |
| – | 40 nM | – | Cc1cn(-c2ccnc(N3CCc4c([nH]c5ccccc45)C3c3ccc4c(c3)CCO4)n2)cn1 (stereo not drawn) [Example 74] |
| – | 30 nM | – | c1ccc(-c2ccnc(N3CCc4c([nH]c5ccccc45)C3c3ccc4c(c3)CCO4)n2)cc1 (stereo not drawn) [Example 58] |
| – | 30 nM | – | Cc1ncn(-c2nccc(N3CCc4c([nH]c5ccccc45)C3c3ccc4c(c3)CCO4)n2)c1C (stereo not drawn) [Example 73] |
| – | 20 nM | – | c1ccc(-c2nccc(N3CCc4c([nH]c5ccccc45)C3c3ccc4c(c3)OCO4)n2)cc1 (stereo not drawn) [Example 55] |
| – | 20 nM | – | c1ccc2c3c([nH]c2c1)C(c1ccc2c(c1)CCO2)N(c1cc(-n2ccnc2)ncn1)CC3 (stereo not drawn) [Example 65] |
| – | 20 nM | – | Cc1nccn1-c1cc(N2CCc3c([nH]c4ccccc34)C2c2ccc3c(c2)CCO3)ncn1 (stereo not drawn) [Example 68] |
| – | 20 nM | – | CN(C)CCOc1ccc(-c2ccnc(N3CCc4c([nH]c5ccccc45)C3c3ccc4c(c3)CCO4)n2)cc1 (stereo not drawn) [Example 70] |
| – | 20 nM | – | Cc1ncn(-c2cc(N3CCc4c([nH]c5ccccc45)C3c3ccc4c(c3)CCO4)ncn2)c1C (stereo not drawn) [Example 71] |
| – | 10 nM | – | Oc1ccc(-c2ccnc(N3CCc4c([nH]c5ccccc45)C3c3ccc4c(c3)CCO4)n2)cc1 (stereo not drawn) [Example 72] |
| – | 10 nM | – | Cc1cn(-c2cc(N3CCc4c([nH]c5ccccc45)C3c3ccc4c(c3)CCO4)ncn2)cn1 (stereo not drawn) [Example 76] |
| – | 9 nM | – | c1cncc(-c2nccc(N3CCc4c([nH]c5ccccc45)C3c3ccc4c(c3)CCO4)n2)c1 (stereo not drawn) [Example 69] |
| – | 7 nM | – | c1ccc(-c2cc(N3CCc4c([nH]c5ccccc45)C3c3ccc4c(c3)CCO4)ncn2)cc1 (stereo not drawn) [Example 75] |
| – | 5 nM | – | CN(C)CCOc1ccc(-c2cc(N3CCc4c([nH]c5ccccc45)C3c3ccc4c(c3)CCO4)ncn2)cc1 (stereo not drawn) [Example 82] |
| – | 4 nM | – | c1cncc(-c2cc(N3CCc4c([nH]c5ccccc45)C3c3ccc4c(c3)CCO4)ncn2)c1 (stereo not drawn) [Example 77] |
| – | 4 nM | – | COc1ccc(-c2cc(N3CCc4c([nH]c5ccccc45)C3c3ccc4c(c3)CCO4)ncn2)cc1 (stereo not drawn) [Example 79] |
| – | 3 nM | – | CC(=O)Oc1ccc(-c2cc(N3CCc4c([nH]c5ccccc45)C3c3ccc4c(c3)CCO4)ncn2)cc1 (stereo not drawn) [Example 81] |
